Broadly, the EC50 is the concentration giving half of the maximal effect. As a reminder, the CC50 is the concentration giving 50% cytotoxicity. For orientation: mortality means the percentage killed.

We go through 14 compounds from publication PMC9652300, “Neolignans isolated from Saururus cernuus L. (Saururaceae) exhibit efficacy against Schistosoma mansoni” (Scientific Reports, 2022).

Where two headings read alike, the source gives them in different places. A value given as a limit tells only on which side of the number the result lay.

Data set [1] concerns S. mansoni adult worms. To be noted: cited from earlier work.
Data set [2] deals with S. mansoni adult worms. Nature of the data set: Antischistosomal assay: viability of ex vivo adult worm pairs. It counts as cell-based. The procedure:
The life cycle of S. mansoni (BH strain) is maintained by routine passage through Biomphalaria glabrata snails and Swiss mice at Guarulhos University (UNG, Guarulhos, SP, Brazil). Rodents, three weeks-old, were purchased from Animais de Laboratório Criação e Comércio (Paulínea, SP, Brazil). Both mice and snails were kept under environmentally controlled conditions (25 °C; humidity of 50%), with free access to food and water. Cercariae of S. mansoni were obtained from infected intermediate host snails in our laboratories as described previously[63],[64].
(§1) The antischistosomal assay was performed as previously described[65],[66]. Briefly, S. mansoni adult parasites were obtained from infected mice at day 42 post-infection (parasite ex vivo). One adult male and one adult female worms (i.e. one worm pairs) were incubated in flat bottom 24-well plates (Corning, New York, NY, USA) in the presence of threo-austrobailignan-6 and verrucosin (started at 50 µM and followed a twofold dilution series) in RPMI 1640 culture medium supplemented with 5% inactivated fetal calf serum and containing antibiotics (100 U/mL penicillin and 100 μg/mL streptomycin). The control schistosomes were assayed in a culture medium and 0.5% DMSO (representing the highest concentration of solvent). Each concentration (50, 25, 12.5, 6.25, 3.12 µM) was tested in five replicates, and the experiments were repeated three times. Parasites were kept for 72 h (37 °C, 5% CO2), and their viability was monitored microscopically at 2, 24, 48, and 72 h using both a Motic AE2000 inverted microscope (Vancouver, Canada) and a Leica EZ4E stereomicroscope (Wetzlar, Germany). The death of adult schistosomes was defined as no movement observed for at least 1 to 2 min of examination, whereas parasites with any body movement were considered viable. The percentage of viable adult schistosomes was calculated considering worms exposed to compounds vs control worms. For assessment of the reproductive fitness of S. mansoni, the number of eggs was counted daily using an inverted microscope (Motic) as previously described.
(§2) Statistical analyses were performed using Graph Pad Prism software 8.0 (San Diego, CA, USA). Data are presented as the mean ± standard deviation (SD) of at least three independent experiments, EC50 and, CC50 values were calculated using sigmoid dose–response curves. For S. mansoni egg production, significant differences were determined by one-way analysis of variance (ANOVA) and applying Tukey's test for multiple comparisons with a level of significance set at P < 0.05.

Data set [3] can be described thus: Cytotoxicity MTT assay, Vero cells. Type of data set: cell-based, African green monkey. The conditions noted are these: African green monkey, Vero cells (monkey kidney cells); Vero cells, MTT, 72 h. As to the method:
(§3) HaCaT (human epithelial cells) and Vero (monkey kidney cells) were obtained from the Banco de Células do Rio de Janeiro (BCRJ, RJ, Brazil) and the American Type Culture Collection (ATCC CCL-81; Manassas, VA, USA), respectively. Cells were cultured in DMEM medium supplemented with 10% heat-inactivated fetal bovine serum and antibiotics (100 U/mL penicillin and 100 μg/mL streptomycin) at 37 °C in a humidified atmosphere containing 5% CO2. They were maintained in 25 cm^2 culture flasks (Corning, Tewksbury, MA, USA) and harvested using 0.25% trypsin in 0.2 g/L EDTA solution.
(§4) The MTT assay was used to evaluate the cytotoxic activity as previously described[71],[72]. Briefly, cells were seeded (2 × 10^3/well in 96-well culture plates) and incubated with threo-austrobailignan-6 and verrucosin (started at 500 µM and followed a threefold dilution series) for 72 h at 37 °C and 5% CO2. MTT solution was added to each well and the absorbance was read on an Epoch Microplate Spectrophotometer (BioTek Instruments, Winooski, VT, USA) at 595 nm. The selectivity indices (SI) were calculated by dividing the 50% cytotoxic concentration (CC50) obtained on cells with 50% effective concentration (EC50) values determined on schistosomes.
as §2
A general note: Formazan colour is commonly taken as a measure of viable cells.

The subject of data set [4] is Vero (monkey kidney cells). Nature of the data set: Cytotoxicity MTT assay, Vero cells. The conditions noted are these: CC50 Vero / EC50 S. mansoni. Type of data set: cell-based, African green monkey. The procedure: as §3, §4, §2
Data set [5] is described as follows: Cytotoxicity MTT assay, HaCaT cells. The conditions noted are these: human, HaCaT cells (human epithelial cells); HaCaT cells, MTT, 72 h. It counts as cell-based, human. As to the method: as §3, §4, §2
The next data set relates to S. mansoni infections. More on the design: method as in PMID 25412105, PMID 28126024. To be noted: systematic reviews and meta-analyses; cited from earlier work.
In data set [6] the test system is S. mansoni adult worm pairs. Description: Egg production (reproductive fitness) of paired adult worms. Type of data set: cell-based, Schistosoma mansoni. To be noted: for total number of eggs vs control worms / oviposition: within 72 h. As to the method: as §1, §2
The subject of data set [7] is HaCaT (human epithelial cells). Description: Cytotoxicity MTT assay, HaCaT cells. It counts as cell-based. To be noted: CC50 HaCaT / EC50 S. mansoni. The procedure:
as §3, §4, §2

[8] abbreviates: Schistosoma mansoni, 72 h, adult worms, male and female, 72 h, read-out: EC50 (schistosomicidal activity).
Setting [9] is: Schistosoma mansoni, 72 h, ex vivo adult female worms, 72 h exposure, brackets = 95% confidence interval, read-out: S. mansoni EC50 Female.
Where [10] appears, read: Schistosoma mansoni, 72 h, ex vivo adult male worms, 72 h exposure, brackets = 95% confidence interval, read-out: S. mansoni EC50 Male.

In the case of 2-oxopopulifolic acid methyl ester, in the data set with S. mansoni adult worms [1], the “in vitro effective concentration” value was 50 µM.
As to `C=CC(C)(O)CCC=C(C)CCC=C(C)C` (mixture of isomers) [nerolidol], the “in vitro effective concentration” value in the data set on S. mansoni adult worms [1] is 85 µM.
With `CC1=CC(=O)CC2[C@]1(C)CC[C@@H](C)[C@]2(C)CCC(C)CC(=O)O` (stereo partly drawn) [2-oxopopulifolic acid], the “in vitro effective concentration” value in the data set on S. mansoni adult worms [1] is 50 µM.
In the case of `CC(C)CCCC(C)CCO` (stereo not drawn) [3,7-dimethylloctanol], in the data set on S. mansoni adult worms [1], the “in vitro effective concentration” value is given as 52 µM.
For `O=C(C1CCCCC1)N1CC(=O)N2CCc3ccccc3C2C1` (stereo not drawn) [Praziquantel, praziquantel, reference compound], the EC50 with S. mansoni adult worms [2] (setting [8]) was less than 0.93 µM; in the data set on S. mansoni adult worms [2] (setting [9]), 0.8 µM; in the data set on S. mansoni adult worms [2] (setting [10]) it was 0.7 µM. Further, in the data set on S. mansoni adult worms [2] (praziquantel at 2 µM, monitored up to 72 h), the “mortality of adult worm pairs” value was “mortality of all worms immediately”. The 50% cytotoxic concentration (CC50) at 72 h in data set [3] and in data set [5] was more than 500 µM in each case. In data set [4], the “Monkey cells SI (Selectivity Index)” value is more than 714. The cure rate entry in the data set on S. mansoni infections is “approximately 75%”.
`COc1cc(C[C@@H](C)[C@H](C)Cc2ccc3c(c2)OCO3)ccc1O` [Threo-austrobailignan-6, threo-austrobailignan-6]: the EC50 is less than 30 µM in the data set on S. mansoni adult worms [2] (setting [8]), 28.1 µM in the data set with S. mansoni adult worms [2] (setting [9]) and 22.9 µM in the data set on S. mansoni adult worms [2] (setting [10]). Also, in the data set on S. mansoni adult worms [2] (Schistosoma mansoni, 72 h, read-out: mortality of male worms), the mortality at 25 µM is 100%. The “pairing of male and female parasites” value in data set [6] (25 μM) is reported as “remained coupled”; in data set [6] (50 μM), “separated”. For the same compound, the “total number of eggs vs control worms” value in data set [6] (25 μM) was “significantly reduced”. For the same compound, in data set [6] (50 μM), the oviposition entry is “complete lack of oviposition”. For the same compound, the CC50 at 72 h in data set [3] and in data set [5] was more than 500 µM each time. In addition, the “Monkey cells SI (Selectivity Index)” value in data set [4] is recorded as more than 17.8. Besides, in data set [7], the “Human cells SI (Selectivity Index)” value is recorded as more than 17.8.
With `COc1cc([C@H]2O[C@@H](c3ccc(O)c(OC)c3)[C@@H](C)[C@@H]2C)ccc1O` [Verrucosin, verrucosin], the “time to death of all female worms” value in the data set on S. mansoni adult worms [2] (25 μM) is reported as not above 72 h. In addition, in the data set on S. mansoni adult worms [2] (Schistosoma mansoni, 48 h, read-out: mortality of male parasites), the mortality at 25 µM came out at 100%. In addition, the EC50 with S. mansoni adult worms [2] (setting [9]) was 18.7 µM; in the data set with S. mansoni adult worms [2] (setting [10]), 12.6 µM; with S. mansoni adult worms [2] (adult worms, male and female, 72 h, read-out: EC50 (schistosomicidal activity)), less than 30 µM. For the same compound, the oviposition result is “significant reduction” in data set [6] (12.5 μM, P < 0.01) and “complete lack of oviposition” in data set [6] (50 μM). The entries for the “pairing of male and female parasites” value in data set [6] (25 μM) and in data set [6] (50 μM) were “remained coupled” and “separated”, respectively. In data set [6] (25 μM), the “total number of eggs vs control worms” value is listed as “significantly reduced”. Also, the CC50 at 72 h in data set [3] and in data set [5] was more than 500 µM in each case. Further, the “Monkey cells SI (Selectivity Index)” value in data set [4] is reported as more than 26.8. The “Human cells SI (Selectivity Index)” value in data set [7] was more than 26.8.
Consider `COc1cc(O)cc(O)c1C(=O)/C=C/c1ccccc1` [cardamonin], for which the “in vitro effective concentration” value in the data set with S. mansoni adult worms [1] is recorded as 25 µM.
In the case of `Cc1ccc(C(C)C)cc1O` [carvacrol], in the data set on S. mansoni adult worms [1], the “in vitro effective concentration” value is 56.8 µM.
Turning to `CC(=O)Oc1cc(C(C)C)ccc1C` [carvacryl acetate], in the data set on S. mansoni adult worms [1], the “in vitro effective concentration” value was 42.16 µM.
Turning to `C=C1C(=O)O[C@@H]2/C=C(\CO)CC/C=C(\C)C[C@H](OC(=O)C(=C)[C@@H](O)CO)[C@@H]12` [cnicin], the “in vitro effective concentration” value in the data set with S. mansoni adult worms [1] is 50 µM.
For the compound `C=C1C[C@@]23CC[C@H]4[C@@](C)(CCC[C@@]4(C)C(=O)O)[C@@H]2CC[C@@H]1C3` [ent-kaur-16-en-19-oic acid], in the data set on S. mansoni adult worms [1], the “in vitro effective concentration” value is recorded as 26.1 µM.
For the compound `C/C=C/c1cc(OC)c2c(c1)[C@H](C)[C@@H](c1ccc(O)c(OC)c1)O2` [licarin A], in the data set with S. mansoni adult worms [1], the “in vitro effective concentration” value is 30 µM.
`C=CC(C)(C)c1cc(/C=C/C(=O)c2ccc(O)cc2)c(OC)cc1O` [licochalcone A]: in the data set with S. mansoni adult worms [1], the “in vitro effective concentration” value is 50 µM.
